Paper PMC7881642, “Inducing secondary metabolite production of Aspergillus sydowii through microbial co-culture with Bacillus subtilis” (Microbial Cell Factories, 2021)

Experiments:
PTP1b = target: T1, PTP1b (Homo sapiens, UniProt P18031); experiment: Protein tyrosine phosphatase 1b inhibitory assay (pNPP substrate); assay type: biochemical; conditions: 37 °C, pH 6.0
T1 sequence (P18031 1-435): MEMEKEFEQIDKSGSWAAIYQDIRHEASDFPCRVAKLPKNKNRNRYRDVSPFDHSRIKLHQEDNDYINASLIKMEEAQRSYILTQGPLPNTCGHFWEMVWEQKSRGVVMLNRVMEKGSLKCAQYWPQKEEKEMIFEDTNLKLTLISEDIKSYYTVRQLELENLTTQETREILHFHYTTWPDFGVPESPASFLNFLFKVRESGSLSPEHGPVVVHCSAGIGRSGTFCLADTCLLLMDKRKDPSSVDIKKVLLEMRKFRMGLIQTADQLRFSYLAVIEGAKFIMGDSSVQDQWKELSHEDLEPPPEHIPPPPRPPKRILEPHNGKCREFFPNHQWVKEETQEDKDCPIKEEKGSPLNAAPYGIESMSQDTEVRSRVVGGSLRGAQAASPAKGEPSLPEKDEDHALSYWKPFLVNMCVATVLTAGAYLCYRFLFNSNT
Procedure: The PTP1b inhibitory activity of the tested compounds was measured at 37 °C using p-nitrophenyl phosphate (pNPP) as the substrate. The reaction was performed in a 96-well plate (final volume of 150 μL) and incubated for 30 min in the assay buffer (50 mM citrate (pH 6.0), 0.1 M NaCl, 1 mM EDTA, and 1 mM dithiothreitol) at 37 °C. Subsequently, the reaction was terminated by the addition of 10 M NaOH and the amount of p-nitrophenyl was determined by measuring the absorbance at 405 nm.

SHP1 = SHP1 (Homo sapiens, UniProt P29350); experiment: SHP1 inhibitory activity; assay type: biochemical
Chain of SHP1 (P29350 whole entry): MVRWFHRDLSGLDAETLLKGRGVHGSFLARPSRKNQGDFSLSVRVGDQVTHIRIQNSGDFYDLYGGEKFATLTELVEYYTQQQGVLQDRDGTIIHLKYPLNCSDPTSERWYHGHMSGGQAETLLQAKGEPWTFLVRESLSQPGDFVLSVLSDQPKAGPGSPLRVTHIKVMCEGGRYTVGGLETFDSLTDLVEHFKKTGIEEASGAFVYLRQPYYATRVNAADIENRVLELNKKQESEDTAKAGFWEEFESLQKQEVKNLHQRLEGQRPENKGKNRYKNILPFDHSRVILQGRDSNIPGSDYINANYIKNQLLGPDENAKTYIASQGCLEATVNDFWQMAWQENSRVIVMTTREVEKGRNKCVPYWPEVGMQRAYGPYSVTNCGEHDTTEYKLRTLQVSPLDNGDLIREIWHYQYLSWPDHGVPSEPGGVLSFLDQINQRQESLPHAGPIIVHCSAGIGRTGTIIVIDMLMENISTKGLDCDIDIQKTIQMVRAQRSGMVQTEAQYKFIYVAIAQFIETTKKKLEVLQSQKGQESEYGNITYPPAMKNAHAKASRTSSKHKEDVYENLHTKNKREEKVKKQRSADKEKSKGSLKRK

CD45 = target: T2, CD45 (Homo sapiens, UniProt P08575); experiment: CD45 inhibitory activity; assay type: biochemical
T2 sequence (P08575 26-1306): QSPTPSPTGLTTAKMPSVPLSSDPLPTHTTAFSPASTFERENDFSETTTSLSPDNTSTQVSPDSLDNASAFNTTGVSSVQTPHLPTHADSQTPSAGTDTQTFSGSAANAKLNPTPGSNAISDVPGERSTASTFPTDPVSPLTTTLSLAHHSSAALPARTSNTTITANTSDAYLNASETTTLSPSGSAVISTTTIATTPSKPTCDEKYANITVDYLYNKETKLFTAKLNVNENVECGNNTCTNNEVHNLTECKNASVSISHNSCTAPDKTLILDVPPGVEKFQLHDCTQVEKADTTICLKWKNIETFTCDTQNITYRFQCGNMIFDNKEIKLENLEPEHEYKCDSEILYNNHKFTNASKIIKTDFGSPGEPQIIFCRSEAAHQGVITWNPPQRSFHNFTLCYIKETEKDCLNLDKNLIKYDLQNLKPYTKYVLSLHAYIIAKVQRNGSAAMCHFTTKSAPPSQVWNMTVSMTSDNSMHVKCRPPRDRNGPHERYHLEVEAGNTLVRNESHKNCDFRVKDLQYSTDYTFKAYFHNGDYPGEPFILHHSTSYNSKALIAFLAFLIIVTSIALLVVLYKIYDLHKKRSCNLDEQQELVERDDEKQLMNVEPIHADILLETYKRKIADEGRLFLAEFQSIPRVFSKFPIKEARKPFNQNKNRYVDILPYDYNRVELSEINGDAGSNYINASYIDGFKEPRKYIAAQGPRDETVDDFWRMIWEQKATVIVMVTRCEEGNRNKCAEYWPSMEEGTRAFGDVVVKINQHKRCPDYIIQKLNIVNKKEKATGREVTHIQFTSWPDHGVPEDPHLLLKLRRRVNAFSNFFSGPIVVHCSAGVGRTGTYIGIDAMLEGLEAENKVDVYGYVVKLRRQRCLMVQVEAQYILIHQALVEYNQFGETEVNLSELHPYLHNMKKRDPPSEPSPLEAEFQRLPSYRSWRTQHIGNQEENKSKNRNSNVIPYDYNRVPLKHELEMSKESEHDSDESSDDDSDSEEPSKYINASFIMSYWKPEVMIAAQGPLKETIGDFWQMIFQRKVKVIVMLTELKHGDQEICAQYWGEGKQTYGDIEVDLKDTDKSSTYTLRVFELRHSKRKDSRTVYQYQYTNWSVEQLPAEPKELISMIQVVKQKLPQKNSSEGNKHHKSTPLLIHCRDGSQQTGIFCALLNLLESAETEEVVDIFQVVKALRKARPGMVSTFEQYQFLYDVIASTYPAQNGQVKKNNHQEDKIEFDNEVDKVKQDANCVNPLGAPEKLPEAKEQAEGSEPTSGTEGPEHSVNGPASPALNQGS

S. aureus = system: S. aureus; design: method as in doi:10.1007/s10600-016-1885-z; conditions: cited from earlier work
B. cereus = system: B. cereus; design: method as in doi:10.1007/s10600-016-1885-z; conditions: cited from earlier work
[1] = system: insulin-stimulated glucose consumption; design: method as in PMID 23647825; conditions: cited from earlier work
nematode = experiment: anti-nematode activity
fungi = system: fungi; design: method as in PMID 23488669; conditions: cited from earlier work

SMILES	IC50 (PTP1b) [µM]	IC50 (SHP1) [µM]	IC50 (CD45) [µM]	IC50 (nematode) [µM]	MIC against S. aureus (S. aureus)	MIC against B. cereus (B. cereus)	effect on insulin-stimulated glucose consumption [1]	antifungal activity MIC (fungi) [µM]
CC(C)(O)CCCC(C)(O)c1ccc(C(=O)O)cc1O (stereo in doubt) [N4, (R)-(−)-Hydroxysydonic acid]	> 20	15.72 ± 0.11	> 20		less than 25 μM	less than 25 μM		
CC(C)CCC[C@](C)(O)c1ccc(CO)cc1O [(S)-(+)-sydonol]							potentiated	
Cc1cc(O)cc(O)c1C(=O)O [N1, Orsellinic acid]	> 20	> 20	> 20					
C[C@@H]1CCC/C=C/C=C/[C@H](O)C[C@@H](O)C/C=C\C=C\[C@@H](O)C/C=C/C=C\C(=O)O1 [N13, Macrolactin A]	> 20	14.6 ± 0.39	17.9					40 to 300

Second part, led by results:

IC50 (PTP1b) [µM]	IC50 (SHP1) [µM]	IC50 (CD45) [µM]	IC50 (nematode) [µM]	SMILES	MIC against S. aureus (S. aureus)	MIC against B. cereus (B. cereus)	effect on insulin-stimulated glucose consumption [1]	antifungal activity MIC (fungi) [µM]
7.97	8.35 ± 0.35	> 20		CC(C)CCC[C@](C)(O)c1ccc(C(=O)O)cc1O [N2, Sydonic acid]				
15.88 ± 0.13	> 20	> 20	50	CC(C)C(O)CC[C@](C)(O)c1ccc(C(=O)O)cc1O (stereo partly drawn) [N3, (7S)-(−)-10-Hydroxysydonic acid]				
14.2 ± 0.21	11.68 ± 0.08	16		CC(C)CCCC(C)(O)c1ccc(C(=O)NC(CO)C(=O)O)cc1O (centres unmarked) [N7, Serine sydonate]				
